According to the supplement of paper PMC12350171:

What was measured:
[1] = test system: Com21 synthetic gut community; assay: community biomass OD578 after 24 h drug treatment relative to untreated (fraction of untreated control); higher = more community growth; details: community: Com21 (Com20 + E. coli ED1a)
Method: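 Com21 (Com20 plus E. coli ED1a) was treated with drug for 24 h under anaerobic conditions in mGAM. Community OD578 was then measured and normalised to untreated Com21; mean of 3 biological replicates.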

Collinsella aerofaciens = assay: IC25 growth inhibition; higher = less potent
Summary of the method: (§1)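 Under anaerobic conditions, OD578 was read hourly in a plate reader for at least three biological replicates of monocultures grown overnight in mGAM. Each culture started at an OD578 of 0.01 in pre-reduced plates holding twofold drug dilutions and 1% DMSO (or water). IC25 was reported as a tested interval: the lowest concentration where the monotonic median area under the growth curve dropped below the cutoff. That cutoff was 0.75.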

Vibrio cholerae = assay: IC25 growth inhibition; higher = less potent
Summary of the method: as §1

Shigella flexneri = assay: IC25 growth inhibition; higher = less potent
Summary of the method: as §1

Parabacteroides merdae = assay: IC25 growth inhibition; higher = less potent
Summary of the method: as §1

Dorea formicigenerans = assay: IC25 growth inhibition; higher = less potent
Summary of the method: as §1

[2] = test system: Fusobacterium nucleatum subsp. Nucleatum; assay: IC25 growth inhibition; higher = less potent
Summary of the method: as §1

[3] = test system: Salmonella enterica typhimurium; assay: IC25 growth inhibition; higher = less potent
Summary of the method: as §1

Clostridium perfringens = assay: IC25 growth inhibition; higher = less potent
Summary of the method: as §1

[4] = test system: Yersinia enterocolitica WA-314; assay: IC25 growth inhibition; higher = less potent
Summary of the method: as §1

Streptococcus salivarius = assay: IC25 growth inhibition; higher = less potent
Summary of the method: as §1

Escherichia coli ED1a = assay: IC25 growth inhibition; higher = less potent
Summary of the method: as §1

[5] = test system: Bacteroides thetaiotaomicron; assay: IC25 growth inhibition; higher = less potent
Summary of the method: as §1

[6] = test system: Clostridium saccharolyticum; assay: IC25 growth inhibition; higher = less potent
Summary of the method: as §1

Clostridium ramosum = assay: IC25 growth inhibition; higher = less potent
Summary of the method: as §1

Eubacterium rectale = assay: IC25 growth inhibition; higher = less potent
Summary of the method: as §1

[7] = test system: Streptococcus parasanguinis; assay: IC25 growth inhibition; higher = less potent
Summary of the method: as §1

Roseburia intestinalis = assay: IC25 growth inhibition; higher = less potent
Summary of the method: as §1

Coprococcus comes = assay: IC25 growth inhibition; higher = less potent
Summary of the method: as §1

Bacteroides uniformis = assay: IC25 growth inhibition; higher = less potent
Summary of the method: as §1

[8] = test system: Yersinia pseudotuberculosis; assay: IC25 growth inhibition; higher = less potent
Summary of the method: as §1

Clostridium bolteae = assay: IC25 growth inhibition; higher = less potent
Summary of the method: as §1

Ruminococcus gnavus = assay: IC25 growth inhibition; higher = less potent
Summary of the method: as §1

Bacteroides fragilis NT = assay: IC25 growth inhibition; higher = less potent
Summary of the method: as §1

Bacteroides vulgatus = assay: IC25 growth inhibition; higher = less potent
Summary of the method: as §1

[9] = drug pretreatment concentration 10 µM
[10] = drug pretreatment concentration 20 µM
[11] = drug pretreatment concentration 40 µM
[12] = drug pretreatment concentration 80 µM
[13] = drug pretreatment concentration 160 µM
[14] = drug pretreatment concentration 2.5 µM
[15] = drug pretreatment concentration 5 µM
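Throughout, for IC25 growth inhibition: lowest concentration where monotonic median growth AUC falls below 0.75 of drug-free control.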

| SMILES | community biomass OD578 [1, 9] | community biomass OD578 [1, 10] | community biomass OD578 [1, 11] | community biomass OD578 [1, 12] | community biomass OD578 [1, 13] | IC25 growth inhibition (Collinsella aerofaciens) [µM] | IC25 growth inhibition (Vibrio cholerae) [µM] | IC25 growth inhibition (Shigella flexneri) [µM] | IC25 growth inhibition (Parabacteroides merdae) [µM] | IC25 growth inhibition (Dorea formicigenerans) [µM] | IC25 growth inhibition [2] [µM] | IC25 growth inhibition [3] [µM] | IC25 growth inhibition (Clostridium perfringens) [µM] | IC25 growth inhibition [4] [µM] | IC25 growth inhibition (Streptococcus salivarius) [µM] | IC25 growth inhibition (Escherichia coli ED1a) [µM] | IC25 growth inhibition [5] [µM] | IC25 growth inhibition [6] [µM] | IC25 growth inhibition (Clostridium ramosum) [µM] | IC25 growth inhibition (Eubacterium rectale) [µM] | IC25 growth inhibition [7] [µM] | IC25 growth inhibition (Roseburia intestinalis) [µM] | IC25 growth inhibition (Coprococcus comes) [µM] | IC25 growth inhibition (Bacteroides uniformis) [µM] | IC25 growth inhibition [8] [µM] | IC25 growth inhibition (Clostridium bolteae) [µM] | IC25 growth inhibition (Ruminococcus gnavus) [µM] | IC25 growth inhibition (Bacteroides fragilis NT) [µM] | IC25 growth inhibition (Bacteroides vulgatus) [µM] | community biomass OD578 [1, 14] | community biomass OD578 [1, 15] |
| --- | --- | --- | --- | --- | --- | --- | --- | --- | --- | --- | --- | --- | --- | --- | --- | --- | --- | --- | --- | --- | --- | --- | --- | --- | --- | --- | --- | --- | --- | --- | --- |
| Clc1ccc(Cn2c(CN3CCCC3)nc3ccccc32)cc1 [Clemizole] | 1.01 | 1 | 1.03 | 1.02 | 0.964 | ≤ 20 | ≤ 80 | > 160 | ≤ 160 | ≤ 2.5 | ≤ 160 | > 160 | ≤ 160 | > 160 | > 160 | > 160 | ≤ 160 | ≤ 80 | ≤ 10 | ≤ 2.5 | > 160 | ≤ 5 | ≤ 2.5 | > 160 | > 160 | > 160 | ≤ 10 | > 160 | ≤ 160 |  |  |
| Clc1ccccc1C(c1ccccc1)(c1ccccc1)n1ccnc1 [Clotrimazole] | 1.03 | 1 | 0.976 |  |  | ≤ 40 | > 80 | > 80 | ≤ 40 | ≤ 10 | > 40 | > 80 | > 80 | > 80 | > 80 | > 40 | ≤ 80 | ≤ 40 | ≤ 20 | ≤ 10 | > 80 | ≤ 10 | ≤ 5 | ≤ 80 | > 20 | ≤ 80 | ≤ 20 | ≤ 80 | ≤ 80 | 0.969 | 0.989 |
| CC(=O)Oc1cccc2c1C(=O)c1c(OC(C)=O)cc(C(=O)O)cc1C2=O [Diacerein] | 0.936 | 0.913 | 0.728 | 0.337 | 0.284 | ≤ 2.5 | ≤ 40 | > 160 | < 1.25 | < 1.25 | ≤ 10 | > 160 | ≤ 20 | > 160 | ≤ 10 | > 160 | ≤ 2.5 | ≤ 2.5 | ≤ 10 | < 1.25 | ≤ 10 | < 1.25 | ≤ 20 | ≤ 5 | ≤ 160 | ≤ 2.5 | ≤ 10 | ≤ 2.5 | ≤ 2.5 |  |  |
| O=c1oc2ccccc2c(O)c1Cc1c(O)c2ccccc2oc1=O [Dicumarol] | 0.958 | 0.956 | 0.962 |  |  | > 80 | ≤ 80 | > 80 | ≤ 80 | > 80 | ≤ 80 | > 80 | ≤ 20 | > 80 | ≤ 20 | > 40 | ≤ 80 | ≤ 40 | ≤ 40 | > 80 | ≤ 10 | > 80 | > 80 | ≤ 20 | > 80 | > 80 | ≤ 80 | ≤ 20 | ≤ 20 | 0.966 | 0.965 |
| C/C=C(/C(=C/C)c1ccc(O)cc1)c1ccc(O)cc1 [Dienestrol] | 0.997 | 0.972 | 0.894 |  |  | > 40 | ≤ 40 | > 40 | ≤ 40 | ≤ 10 | > 40 | > 40 | ≤ 20 | > 40 | ≤ 40 | > 40 | ≤ 20 | ≤ 40 | ≤ 40 | ≤ 20 | > 40 | ≤ 40 | ≤ 10 | ≤ 40 | > 40 | > 40 | ≤ 5 | ≤ 10 | ≤ 40 | 0.981 | 1.03 |
| C[C@]12CCC3=C4CCC(=O)C=C4CC[C@H]3[C@@H]1CC[C@@]2(O)CC#N [Dienogest] | 0.987 | 1.01 | 0.995 | 0.975 |  | > 80 | > 80 | > 80 | > 80 | > 80 | > 80 | > 80 | > 80 | > 80 | > 80 | > 80 | > 80 | > 80 | > 80 | > 80 | > 80 | > 80 | > 80 | > 80 | > 80 | > 80 | > 80 | > 80 | > 80 |  | 0.994 |
| COc1cccc2c1C(=O)c1c(O)c3c(c(O)c1C2=O)C[C@@](O)(C(=O)CO)C[C@@H]3O[C@H]1C[C@H](N)[C@H](O)[C@H](C)O1 [Doxorubicin] | 0.978 | 0.949 | 0.918 | 0.881 | 0.907 | ≤ 10 | > 160 | > 160 | > 160 | ≤ 20 | > 160 | > 160 | ≤ 40 | > 160 | ≤ 10 | > 160 | > 160 | ≤ 20 | ≤ 40 | ≤ 80 | ≤ 5 | ≤ 40 | ≤ 40 | > 160 | > 160 | ≤ 20 | ≤ 160 | > 160 | > 160 |  |  |
